Source: US20210130362A1, “MEDICAL USE OF COMPOUND III” (Boehringer Ingelheim International GmbH, priority 2017, published 2021)

Experiments:
[1] = tested on: patients with schizophrenia on stable antipsychotic treatment; assay: Multinational, randomised, double-blind, placebo-controlled, parallel group clinical trial of compound III, 12 weeks of treatment; assay type: in vivo, human
Method: Regarding reducing the exacerbations of symptoms characterizing relapse, including suicidality, the clinical trial disclosed below was designed to show the efficacy of compound III in improvement of cognitive impairment in patients with schizophrenia as compared to placebo. All patients were on stable antipsychotic treatment (see Table 8 in FIGS. 6A-6C). The study was a multinational, multicentre, randomised, double-blind, placebo-controlled, parallel group trial.
Compound III (10, 25 and 50 mg) and matching placebo were supplied as film-coated tablets (formulation 1).
In total, 516 patients with schizophrenia on stable antipsychotic treatment (Table 8 in FIGS. 6A-6C) as described below were randomized into this trial. […]
The primary safety endpoints are as follows: • Occurrence of adverse events (AEs)/serious adverse events (including the abnormalities of physical examination, vital signs, electrocardiogram test and laboratory tests) • Occurrence of protocol-specified adverse events of special interest • Dramatic worsening of disease state as assessed by PANSS • Suicidality as assessed by Columbia Suicidal Severity Rating Scale (C-SSRS) […]

[2] = Intrinsic dissolution rate of compound III; assay type: physicochemical; conditions: physiologically relevant pH range above pH 4
[3] = patients with schizophrenia receiving antipsychotic therapy

intrinsic dissolution rate [2]: low
Structure (SMILES): O=c1[nH]c(Cc2ccccn2)nc2c1cnn2C1CCOCC1 [compound III]
psychiatric serious adverse events (SAEs): hospitalization for disease worsening (schizophrenia, psychotic disorder) and suicidality leading to hospitalization ([1]; any arm dosed with compound III (10, 25, 50, 100 mg qd), 12 weeks, treated set, 8/8 (100%) of these SAEs in placebo arm): none
change in intensity and occurrence of suicidal ideation compared to placebo [1, 3]: decrease
change in psychiatric serious adverse events (hospitalization for serious worsening of schizophrenia symptoms) compared to placebo [1, 3]: statistically significant, clinically meaningful decrease
